Reference: patent US4352885A, “Preparation of a novel NADP linked alcohol-aldehyde/ketone oxidoreductase from thermophilic anaerobic bacteria for analytical and commercial use” (Wisconsin Alumni Research Foundation, priority 1980, dated 1982)

Key:
[1] = target: T1, NADP linked alcohol dehydrogenase (alcohol-aldehyde/ketone oxidoreductase) (Thermoanaerobacter brockii, UniProt P14941); assay: Specific activity of partially purified NADP linked alcohol dehydrogenase with alcohols and carbonyl compounds (absorbance at 334 nm); format: biochemical, Thermoanaerobium brockii; conditions: for Activity V/mg. at 60° C.: saturating substrate (0.2-0.5 M alcohol or ketone, 10 mM acetaldehyde), 0.5 mM NADP or 0.2 mM NADPH, 0.1 M Tris-Cl pH 7.8; for Optimum pH: Tris-Cl buffers, acetaldehyde reduction or sec-butanol oxidation; for Reaction as substrate: tested as substrates; for Activity with the substance as coenzyme: as coenzymes instead of NADP/NADPH
T1 construct: of the T. brockii enzyme preparation with various alcohols and carbonyl compounds; made in house; host or cells: T. brockii itself (native host; partially purified enzyme)
T1 sequence (P14941 1-352): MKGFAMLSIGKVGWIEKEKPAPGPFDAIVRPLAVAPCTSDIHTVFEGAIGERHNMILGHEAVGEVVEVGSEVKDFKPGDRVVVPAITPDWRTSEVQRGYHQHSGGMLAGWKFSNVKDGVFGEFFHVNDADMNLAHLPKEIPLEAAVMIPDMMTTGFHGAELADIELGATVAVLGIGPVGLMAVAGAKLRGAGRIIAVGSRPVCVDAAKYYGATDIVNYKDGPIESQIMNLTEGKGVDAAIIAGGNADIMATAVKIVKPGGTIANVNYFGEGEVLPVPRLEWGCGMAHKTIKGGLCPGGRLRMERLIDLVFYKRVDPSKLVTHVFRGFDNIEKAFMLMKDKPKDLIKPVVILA

[2] = target: T2, NADP linked alcohol dehydrogenase (secondary alcohol dehydrogenase activity) (Thermoanaerobacter brockii, UniProt P14941); assay: Effects of metal ions, complexing agents and thiol reagents on the enzyme; format: biochemical, Thermoanaerobium brockii; conditions: for Reactivation of PCMB inhibited enzyme: 5 mM DTT, within a few minutes, 1 mM ZnSO4
T2 construct: The NADP linked alcohol dehydrogenase derived from T. brockii can be immobilized; made in house; host or cells: T. brockii itself (native host)
T2 sequence (P14941 1-352): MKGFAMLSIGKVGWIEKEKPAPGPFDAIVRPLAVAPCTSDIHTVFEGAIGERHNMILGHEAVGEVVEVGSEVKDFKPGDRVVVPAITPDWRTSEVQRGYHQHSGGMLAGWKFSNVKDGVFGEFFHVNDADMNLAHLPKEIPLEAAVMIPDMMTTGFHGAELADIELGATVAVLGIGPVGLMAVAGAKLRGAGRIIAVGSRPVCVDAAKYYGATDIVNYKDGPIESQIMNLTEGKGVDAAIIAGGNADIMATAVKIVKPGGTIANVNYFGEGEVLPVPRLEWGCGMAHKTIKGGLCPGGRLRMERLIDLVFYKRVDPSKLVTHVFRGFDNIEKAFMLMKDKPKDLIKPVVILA
Procedure: Metal ions, complexing agents and thiol reagents had the following effects.
Each of the above studies were performed at 40° C.

T. brockii cultures = assay: Reduction of ketones by T. brockii cultures; format: cell-based, Thermoanaerobium brockii; conditions: 0.5% ketone in TYEG medium; 60° C.; 15 hours incubation
Procedure: T. brockii was incubated at 60° C. in anaerobic culture tubes containing the previously described TYEG medium supplemented with 0.5% acetone or butanone. More than 50% of each ketone was converted to the corresponding alcohol after 15 hours incubation. Growth of the organism ceased once the pH fell below 5.0. The reaction is indicated in FIG. 1 when acetone is substituted for glucose to produce the corresponding secondary isopropanol.

[3] = Thermostability and storage stability of the alcohol dehydrogenase; format: physicochemical, Thermoanaerobium brockii
Procedure: The immobilized alcohol dehydrogenase of example 2 was packed in a small flow cell which allowed amperometric measurement of NAPDH concentration, using a glossy carbon and Ag/Cl electrode with 0.8 volt potential difference. A soltuion containing 0.05 mM NADP and varying concentrations of sec. butanol 10-100 micro molar were passed through the cell and gave a signal which depended on the concentration of alcohol. Alternatively, solutions that contained 10 mM NADPH and varying concentrations of acetone produced signals which decreased linearly with increasing concentrations of acetone at 0-200 mM. Potassium phosphate buffer at 500 mM and pH 7.5 was used in these experiments. The immobilized enzyme system for measurement of ketones and alcohols was stable for 2 weeks at room temperature.

[4] = substrate: CCC(C)O; assay: purified protein, by the assay type; conditions: other: substrate concentration giving half-maximal velocity; pH 7.8; 40.0 °C
[5] = substrate: CC=O; assay: Specific activity of partially purified NADP linked alcohol dehydrogenase with alcohols and carbonyl compounds (absorbance at 334 nm); format: biochemical, Thermoanaerobium brockii; conditions: other: substrate concentration giving half-maximal velocity; pH 7.8; 40.0 °C

Molecule	Activity V/mg. at 60° C. [1]	other results
O=C1CC2CCC1C2 (centres unmarked)	4.9 μ Mole/Min./Mg Protein	
2-Cyclohexanone	4.9 μ Mole/Min./Mg Protein	
O[C@H](CS)[C@H](O)CS (racemic) [DTT, dithiothreitol]		Reactivation of PCMB inhibited enzyme ([2]; 40° C.): Complete reversal of the PCMB inhibition
CC1CCCCC1=O (centres unmarked) [2-Methyl Cyclohexanone]	6.0 μ Mole/Min./Mg Protein	
CC1CCCC(=O)C1 (centres unmarked) [3-Methyl Cyclohexanone]	2.0 μ Mole/Min./Mg Protein	
CC1CCC(=O)CC1 [4-Methyl Cyclohexanone]	0.5 μ Mole/Min./Mg Protein	
Oc1cccc2cccnc12 [8-hydroxyquinoline]		Inhibition of activity by complexing agents [2]: did not significantly inhibit activity
C=CC(O)CC (centres unmarked) [CH2CHCH(OH)CH2 CH3]	65.0 μ Mole/Min./Mg Protein	
CC(C)CO [CH3 CH2 (CH3)CH2 OH]	3.1 μ Mole/Min./Mg Protein	
CCC(C)CO (centres unmarked) [CH3 CH2 CH2 (CH3)CH2 OH]	3.0 μ Mole/Min./Mg Protein	
CCCCCO [CH3 CH2 CH2 CH2 CH2 OH]	0.9 μ Mole/Min./Mg Protein	
CCCCO [CH3 CH2 CH2 CH2 OH]	4.1 μ Mole/Min./Mg Protein	
CCCO [CH3 CH2 CH2 OH]	3.6 μ Mole/Min./Mg Protein	
CCC(C)O (centres unmarked) [CH3 CH2 CH(OH)CH3, sec-butanol]	78.0 μ Mole/Min./Mg Protein	Optimum pH [1]: 7.8-9.0
CCO [CH3 CH2 OH]	3.2 μ Mole/Min./Mg Protein	
CC(O)CC(C)O (centres unmarked) [CH3 CH(OH)CH2 CH(OH)CH3]	2.6 μ Mole/Min./Mg Protein	
CC(C)O [CH3 CH(OH)CH3, isopropanol]	59.0 μ Mole/Min./Mg Protein	
CC=O [CH3 CHO, acetaldehyde]	7.8 μ Mole/Min./Mg Protein	Optimum pH [1]: 7.8
CCC(C)=O [CH3 COCH2 CH3, butanone]	7.6 μ Mole/Min./Mg Protein	Ketone converted to the corresponding alcohol (T. brockii cultures): More than 50%
CC(C)=O [CH3 COCH3, acetone]	10.4 μ Mole/Min./Mg Protein	Ketone converted to the corresponding alcohol (T. brockii cultures): More than 50%
CO [CH3 OH]	0 μ Mole/Min./Mg Protein	
[Ca+2].[Cl-].[Cl-] [CaCl2]		Activation or inhibition by metal salts ([2]; 1 mM, 40° C.): no significant activation or inhibition

Molecule	Activity V/mg. at 60° C. [1]	other results
[Cl][Cu][Cl] [CuCl2]		Activation or inhibition by metal salts ([2]; 1 mM, 40° C.): no significant activation or inhibition
O=C1CCCCCC1 [Cycloheptanone]	3.0 μ Mole/Min./Mg Protein	
OC1CCCCC1 [Cyclohexanol]	12.2 μ Mole/Min./Mg Protein	
O=C1CCCCC1 [Cyclohexanone]	6.2 μ Mole/Min./Mg Protein	
O=C1CCCCCCC1 [Cyclooctanone]	0 μ Mole/Min./Mg Protein	
O=C1CCCC1 [Cyclopentanone]	6.0 μ Mole/Min./Mg Protein	
O=C(O)CN(CCN(CC(=O)O)CC(=O)O)CC(=O)O [EDTA, ethylenediamine-tetraacetic acid, reference compound]		Inhibition of activity by complexing agents [2]: did not significantly inhibit activity; Effect on thermostability of the enzyme ([3]; millimolar concentrations): did not decrease thermostability
C[C@H](O)C(=O)O [L-lactic acid]		Reaction as substrate [1]: did not react
CC(=O)C1CC1 [Methyl cyclopropyl ketone]	0.5 μ Mole/Min./Mg Protein	
[Cl-].[Cl-].[Mg+2] [MgCl2]		Activation or inhibition by metal salts ([2]; 1 mM, 40° C.): no significant activation or inhibition
NC(=O)c1ccc[n+]([C@@H]2O[C@H](COP(=O)([O-])OP(=O)(O)OC[C@H]3O[C@@H](n4cnc5c(N)ncnc54)[C@H](O)[C@@H]3O)[C@@H](O)[C@H]2O)c1 [NAD, reference compound]		Activity with the substance as coenzyme [1]: No activity
NC(=O)C1=CN([C@@H]2O[C@H](COP(=O)(O)OP(=O)(O)OC[C@H]3O[C@@H](n4cnc5c(N)ncnc54)[C@H](O)[C@@H]3O)[C@@H](O)[C@H]2O)C=CC1 [NADH, reference compound]		Activity with the substance as coenzyme [1]: No activity
NC(=O)c1ccc[n+]([C@@H]2O[C@H](COP(=O)([O-])OP(=O)(O)OC[C@H]3O[C@@H](n4cnc5c(N)ncnc54)[C@H](OP(=O)(O)O)[C@@H]3O)[C@@H](O)[C@H]2O)c1 [NADP, Nicotinamide adenine dinucleotide phosphate]		Apparent Michaelis constant KM (coenzymes) [1]: in the micromolar range
NC(=O)C1=CN([C@@H]2O[C@H](COP(=O)(O)OP(=O)(O)OC[C@H]3O[C@@H](n4cnc5c(N)ncnc54)[C@H](OP(=O)(O)O)[C@@H]3O)[C@@H](O)[C@H]2O)C=CC1 [NADPH, reference compound]		Apparent Michaelis constant KM (coenzymes) [1]: in the micromolar range
CCN1C(=O)C=CC1=O [NEM, N-ethylmaleimide]		Inactivation of the enzyme ([2]; 1 mM, slow (15 min.), 40° C.): inactivated the enzyme
O=C(O)c1cc[c]([Hg][Cl])cc1 [PCMB, parachloromercuricbenzoate]		Reaction of thiol reagent with the enzyme (inhibition) ([2]; 0.05 mM, 40° C.): reacted instantly
[Cl-].[Cl-].[Zn+2] [ZnCl2]		Activation or inhibition by metal salts ([2]; 1 mM, 40° C.): no significant activation or inhibition
O=S(=O)([O-])[O-].[Zn+2] [ZnSO4]		Reactivation of PCMB inhibited enzyme ([2]; 40° C.): necessary for complete reactivation
OCC(O)CO [glycerol]		Reaction as substrate [1]: did not react
c1cnc2c(c1)ccc1cccnc12 [orthophenanthroline]		inhibition at 2000 µM ([2]; 2 mM, 40° C., read-out: Inhibitory effect on secondary alcohol dehydrogenase activity): 15 to 20%
NADP linked alcohol dehydrogenase (alcohol-aldehyde/ketone oxidoreductase) (Thermoanaerobacter brockii) (protein, of the T. brockii enzyme preparation with various alcohols and carbonyl compounds; made in house; host or cells: T. brockii itself (native host; partially purified enzyme)) MKGFAMLSIGKVGWIEKEKPAPGPFDAIVRPLAVAPCTSDIHTVFEGAIGERHNMILGHEAVGEVVEVGSEVKDFKPGDRVVVPAITPDWRTSEVQRGYHQHSGGMLAGWKFSNVKDGVFGEFFHVNDADMNLAHLPKEIPLEAAVMIPDMMTTGFHGAELADIELGATVAVLGIGPVGLMAVAGAKLRGAGRIIAVGSRPVCVDAAKYYGATDIVNYKDGPIESQIMNLTEGKGVDAAIIAGGNADIMATAVKIVKPGGTIANVNYFGEGEVLPVPRLEWGCGMAHKTIKGGLCPGGRLRMERLIDLVFYKRVDPSKLVTHVFRGFDNIEKAFMLMKDKPKDLIKPVVILA		Km [4]: 500 µM; Km [5]: 150 µM
immobilized enzyme system: T. brockii alcohol dehydrogenase immobilized on sepharose 4B-CnBr, packed in a flow cell (protein, UniProt P14941 1-352, looked up, immobilized on CNBr-Sepharose 4B) NADP-dependent isopropanol …: MKGFAMLSIGKVGWIEKEKPAPGPFDAIVRPLAVAPCTSDIHTVFEGAIGERHNMILGHEAVGEVVEVGSEVKDFKPGDRVVVPAITPDWRTSEVQRGYHQHSGGMLAGWKFSNVKDGVFGEFFHVNDADMNLAHLPKEIPLEAAVMIPDMMTTGFHGAELADIELGATVAVLGIGPVGLMAVAGAKLRGAGRIIAVGSRPVCVDAAKYYGATDIVNYKDGPIESQIMNLTEGKGVDAAIIAGGNADIMATAVKIVKPGGTIANVNYFGEGEVLPVPRLEWGCGMAHKTIKGGLCPGGRLRMERLIDLVFYKRVDPSKLVTHVFRGFDNIEKAFMLMKDKPKDLIKPVVILA		Time stable ([3]; room temperature, immobilized on sepharose in flow cell): 2 weeks
